In publication PMC7114261 (Antiviral Research, 2006):
Values joined by “and” are separate entries in the source; they are usually repeats but may differ in a detail not shown here. Identical values can stand only once. Like-named read-outs stand apart in the source and are kept apart here.

Legend:
SARS-CoV, strain Urbani [1] = test: microbe, parasite or virus in culture; assay type: cell-based, Severe acute respiratory syndrome coronavirus
in vivo = settings: BALB/c, mouse
SARS-CoV (Urbani) = tested on: SARS-CoV (Urbani); parameters: species or system BALB/c mice; settings: mouse, in vivo
SARS-CoV, strain Urbani [2] = test: microbe, parasite or virus in culture; assay type: cell-based; settings: Severe acute respiratory syndrome coronavirus; for IC50: Vero 76, read-out: NR assay IC50
in vitro [3] = settings: African green monkey
Vero 76 cells = settings: African green monkey
SARS-CoV = settings: cited from earlier work
[4] = tested on: cytokines in lung homogenates; parameters: species or system BALB/c mice; settings: mouse, in vivo
in vitro [5] = settings: African green monkey, NR assay CC50
[6] = Severe acute respiratory syndrome coronavirus, Vero 76, read-out: Virus yield reduction assay IC90

| Compound | IC90 (SARS-CoV, strain Urbani [1]; [6]) | MTD (in vivo) | Virus titer ± S.D., Day 3 (SARS-CoV (Urbani)) | Virus titer ± S.D., Day 7 (SARS-CoV (Urbani)) | IC50 (SARS-CoV, strain Urbani [2]) | also measured |
| --- | --- | --- | --- | --- | --- | --- |
| C#Cc1c(C(N)=O)ncn1[C@@H]1O[C@H](CO)[C@@H](O)[C@H]1O [EICAR, 5-ethynyl-1-β-D-ribofuranosylimidazole-4-carboxamide] | > 40 µM | 75 mg/kg | 5.5 ± 0.5 log10 CCID50/g and 5.3 ± 0.3 log10 CCID50/g | 0 log10 CCID50/g | 28 µM |  |
| COc1c(C)c2c(c(O)c1C/C=C(\C)CCC(=O)O)C(=O)OC2 [MPA, mycophenolic acid] |  | 75 mg/kg | 5.5 ± 0.2 log10 CCID50/g and 5.3 ± 0.5 log10 CCID50/g | 0 log10 CCID50/g | > 30 µM |  |
| NC(=O)c1ncn([C@@H]2O[C@H](CO)[C@@H](O)[C@H]2O)c1O [Mizoribine, mizoribine] |  | 25 mg/kg | 4.9 ± 0.3 log10 CCID50/g and 4.7 ± 0.6 log10 CCID50/g | 0 log10 CCID50/g | > 40 µM |  |
| NC(=O)c1ncn([C@@H]2O[C@H](COP(=O)(O)O)[C@@H](O)[C@H]2O)n1 [Ribavirin monophosphate] |  |  |  |  | > 30 µM |  |
| NC(=O)c1ncn([C@@H]2O[C@H](CO)[C@@H](O)[C@H]2O)n1 [Ribavirin, ribavirin] | 560 µM |  |  |  | 320 µM | EC90 (SARS-CoV, strain Urbani [1]; Severe acute respiratory syndrome coronavirus, Caco-2, read-out: EC90 by virus yield reduction assay): 4100 µM; EC90 (SARS-CoV, strain Urbani [1]; Severe acute respiratory syndrome coronavirus, MA104, read-out: EC90 by virus yield reduction assay): 225 µM; IC90 (SARS-CoV, strain Urbani [1]; read-out: Virus yield reduction assay IC90): 590 µM; CC50 (in vitro [3]): 283 µM; Virus in the lungs of mice sacrificed at day 7 (SARS-CoV (Urbani)): virus was not detected; Virus titer (SARS-CoV (Urbani); 75 mg/kg): 0 log10 CCID50/g; Virus titer (SARS-CoV (Urbani); ip, 20 mg/kg): 0 log10 CCID50/g; average CC50 (Vero 76 cells): ~1685 µg/mL; IC50 (SARS-CoV): 2 to 60 µg/mL; GM-CSF level in lung homogenate [4]: 7.9 ± 1.9 pg/mL and 10.7 ± 0.9 pg/mL and 7.9 ± 0.5 pg/mL and 15.7 ± 4.2 pg/mL; IL-4 level in lung homogenate [4]: 5.9 ± 3.5 pg/mL and 6.3 ± 0.3 pg/mL and 4.9 ± 0.9 pg/mL and 7.3 ± 0.5 pg/mL; IL-5 level in lung homogenate [4]: 25.6 ± 2.0 pg/mL and 34.2 ± 2.1 pg/mL and 19.8 ± 1.7 pg/mL and 33.4 ± 0.4 pg/mL; IL-9 level in lung homogenate [4]: 134.2 ± 39.3 pg/mL and 140.9 ± 6.7 pg/mL and 101.5 ± 25.7 pg/mL and 126.3 ± 67.6 pg/mL; CC50 (in vitro [5]): 402 µM; EC50 (SARS-CoV, strain Urbani [2]; Vero 76, read-out: EC50 by neutral red uptake assay, n = 4): 270 ± 50 µM |
| N=C(N)c1ncn([C@@H]2O[C@H](CO)[C@@H](O)[C@H]2O)n1 [Viramidine, viramidine] |  |  |  |  | > 410 µM |  |
